This note sets out measurements from US7125990B2, “Imidazolyl derivatives as corticotropin releasing factor inhibitors” (Bristol-Myers Squibb COmpany, priority 2001, dated 2006).

A word on the pKi: it is the negative decadic logarithm of the Ki, by convention in mol/L.

pKi: −log10 of the molar value.

The target in the assay is T1, CRF1 receptors (Homo sapiens, UniProt P34998).
T1 construct: endogenous in cells; host or cells: IMR-32 cells, transformed with 2.5 µM 5'-bromo-2'-deoxyuridine for 10 days; membrane preparation
T1 sequence (P34998 24-415): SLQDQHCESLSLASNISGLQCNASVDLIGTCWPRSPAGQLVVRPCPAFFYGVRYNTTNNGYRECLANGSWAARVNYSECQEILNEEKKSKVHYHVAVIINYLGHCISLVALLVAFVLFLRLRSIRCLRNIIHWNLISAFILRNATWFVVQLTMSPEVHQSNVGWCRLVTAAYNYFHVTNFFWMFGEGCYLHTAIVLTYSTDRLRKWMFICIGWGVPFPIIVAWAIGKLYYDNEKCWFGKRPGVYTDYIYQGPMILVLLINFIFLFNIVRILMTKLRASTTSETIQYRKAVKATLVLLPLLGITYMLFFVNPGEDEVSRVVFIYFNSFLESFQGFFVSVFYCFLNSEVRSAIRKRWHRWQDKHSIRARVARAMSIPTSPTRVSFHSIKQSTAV
Briefly: CRF1 receptor radioligand binding assay ([125I]-oCRF competition, IMR-32 cell membranes). Particulars: IMR-32 cell membranes, [125I]-oCRF 100 pM; read-out: Ki (CRF-1R). The procedure, abridged:
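Buffer: Tris pH 7.2 with MgCl2, BSA, Triton X-100, aprotinin, leupeptin; reaction stopped with ice-cold wash and filtered. Nonspecific binding set with 10 μM oCRF.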
With `CCCN(CCC(F)(F)F)Cc1c(C(F)(F)F)nc2n1CCCN2c1c(C)cc(C)cc1C` [Example 78, Propyl-[2-trifluoromethyl-8-(2,4,6-trimethyl-phenyl)-5,6,7,8-tetrahydro-imidazo[1,2-a]pyrimidin-3-ylmethyl]-(3,3,3-trifluoro-propyl)-amine], the pKi was greater than 6.00.

As for `CCCN(Cc1c(C(F)(F)F)nc2n1CCCN2c1c(C)cc(C)cc1C)CC(F)(F)F` [Example 79, Propyl-(2,2,2-trifluoro-ethyl)-[2-trifluoromethyl-8-(2,4,6-trimethyl-phenyl)-5,6,7,8-tetrahydro-imidazo[1,2-a]pyrimidin-3-ylmethyl]-amine], the pKi was greater than 7.00.

With `CCCN(Cc1c(C(F)(F)F)nc2n1CCCN2c1c(C)cc(C)cc1C)CC(F)(F)C(F)(F)F` [Example 80, (2,2,3,3,3-Pentafluoro-propyl)-propyl-[2-trifluoromethyl-8-(2,4,6-trimethyl-phenyl)-5,6,7,8-tetrahydro-imidazo[1,2-a]pyrimidin-3-ylmethyl]-amine], the negative logarithm of the Ki (pKi) was greater than 6.00.

For the molecule `Cc1cc(C)c(N2CCCn3c2nc(C(F)(F)F)c3CN(CCc2ccccc2)CCC(F)(F)F)c(C)c1` [Example 81, Phenethyl-[2-trifluoromethyl-8-(2,4,6-trimethyl-phenyl)-5,6,7,8-tetrahydro-imidazo[1,2-a]pyrimidin-3-ylmethyl]-(3,3,3-trifluoro-propyl)-amine], the pKi is greater than 6.00.

On to `Cc1cc(C)c(N2CCCn3c2nc(C(F)(F)F)c3CN(CCc2ccccc2)CC(F)(F)F)c(C)c1` [Example 82, Phenethyl-(2,2,2-trifluoro-ethyl)-[2-trifluoromethyl-8-(2,4,6-trimethyl-phenyl)-5,6,7,8-tetrahydro-imidazo[1,2-a]pyrimidin-3-ylmethyl]-amine], for which the pKi is greater than 7.00.

In the case of `CCCN(CCc1ccccc1)Cc1c(C(F)(F)F)nc2n1CCCN2c1c(C)cc(C)cc1C` [Example 83, Phenethyl-propyl-[2-trifluoromethyl-8-(2,4,6-trimethyl-phenyl)-5,6,7,8-tetrahydro-imidazo[1,2-a]pyrimidin-3-ylmethyl]-amine], the negative logarithm of the Ki (pKi) is greater than 7.00.

As to `CCN(CCc1ccccc1)Cc1c(C(F)(F)F)nc2n1CCCN2c1c(C)cc(C)cc1C` [Example 84, Ethyl-phenethyl-[2-trifluoromethyl-8-(2,4,6-trimethyl-phenyl)-5,6,7,8-tetrahydro-imidazo[1,2-a]pyrimidin-3-ylmethyl]-amine], the pKi is greater than 6.00.

Turning to `Cc1cc(C)c(N2CCCn3c2nc(C(F)(F)F)c3CN(Cc2ccccc2)CC(F)(F)F)c(C)c1` [Example 85, Benzyl-(2,2,2-trifluoro-ethyl)-[2-trifluoromethyl-8-(2,4,6-trimethyl-phenyl)-5,6,7,8-tetrahydro-imidazo[1,2-a]pyrimidin-3-ylmethyl]-amine], the pKi was greater than 5.00.

Turning to `Cc1cc(C)c(N2CCCn3c2nc(C(F)(F)F)c3CN(CCC(F)(F)F)Cc2ccccc2)c(C)c1` [Example 86, Benzyl-[2-trifluoromethyl-8-(2,4,6-trimethyl-phenyl)-5,6,7,8-tetrahydro-imidazo[1,2-a]pyrimidin-3-ylmethyl]-(3,3,3-trifluoro-propyl)-amine], the pKi is greater than 6.00.

For `CCCN(CCC1CC1)Cc1c(C(F)(F)F)nc2n1CCCN2c1c(C)cc(C)cc1C` [Example 87, (2-Cyclopropyl-ethyl)-propyl-[2-trifluoromethyl-8-(2,4,6-trimethyl-phenyl)-5,6,7,8-tetrahydro-imidazo[1,2-a]pyrimidin-3-ylmethyl]-amine], the pKi is greater than 6.00.

In the case of `CCN(CCC1CC1)Cc1c(C(F)(F)F)nc2n1CCCN2c1c(C)cc(C)cc1C` [Example 88, (2-Cyclopropyl-ethyl)-ethyl-[2-trifluoromethyl-8-(2,4,6-trimethyl-phenyl)-5,6,7,8-tetrahydro-imidazo[1,2-a]pyrimidin-3-ylmethyl]-amine], the pKi is greater than 6.00.

With `Cc1cc(C)c(N2CCCn3c2nc(C(F)(F)F)c3CN(CCC2CC2)CCC(F)(F)F)c(C)c1` [Example 89, (2-Cyclopropyl-ethyl)-[2-trifluoromethyl-8-(2,4,6-trimethyl-phenyl)-5,6,7,8-tetrahydro-imidazo[1,2-a]pyrimidin-3-ylmethyl]-(3,3,3-trifluoro-propyl)-amine], the pKi was greater than 6.00.

Take `Cc1cc(C)c(N2CCCn3c2nc(C(F)(F)F)c3CN(CCC2CC2)CC(F)(F)F)c(C)c1` [Example 90, (2-Cyclopropyl-ethyl)-(2,2,2-trifluoro-ethyl)-[2-trifluoromethyl-8-(2,4,6-trimethyl-phenyl)-5,6,7,8-tetrahydro-imidazo[1,2-a]pyrimidin-3-ylmethyl]-amine]: the pKi is greater than 6.00.

As to `Cc1cc(C)c(N2CCCn3c2nc(C(F)(F)F)c3CN(CCC(F)(F)F)Cc2ccc(F)cc2)c(C)c1` [Example 91, (4-Fluoro-benzyl)-[2-trifluoromethyl-8-(2,4,6-trimethyl-phenyl)-5,6,7,8-tetrahydro-imidazo[1,2-a]pyrimidin-3-ylmethyl]-(3,3,3-trifluoro-propyl)-amine], the pKi is greater than 6.00.

In the case of `CCCN(Cc1ccc(F)cc1)Cc1c(C(F)(F)F)nc2n1CCCN2c1c(C)cc(C)cc1C` [Example 92, (4-Fluoro-benzyl)-propyl-[2-trifluoromethyl-8-(2,4,6-trimethyl-phenyl)-5,6,7,8-tetrahydro-imidazo[1,2-a]pyrimidin-3-ylmethyl]-amine], the pKi was greater than 6.00.

With `Cc1cc(C)c(N2CCCn3c2nc(C(F)(F)F)c3CN(CCC(F)(F)F)Cc2ccc(Cl)cc2)c(C)c1` [Example 93, (4-Chloro-benzyl)-[2-trifluoromethyl-8-(2,4,6-trimethyl-phenyl)-5,6,7,8-tetrahydro-imidazo[1,2-a]pyrimidin-3-ylmethyl]-(3,3,3-trifluoro-propyl)-amine], the pKi is greater than 7.00.

As for `CCCN(Cc1ccc(Cl)cc1)Cc1c(C(F)(F)F)nc2n1CCCN2c1c(C)cc(C)cc1C` [Example 94, (4-Chloro-benzyl)-propyl-[2-trifluoromethyl-8-(2,4,6-trimethyl-phenyl)-5,6,7,8-tetrahydro-imidazo[1,2-a]pyrimidin-3-ylmethyl]-amine], the pKi is greater than 6.00.

Regarding `C=CCN(CCC)Cc1c(C(F)(F)F)nc2n1CCCN2c1c(C)cc(C)cc1C` [Example 95, Allyl-propyl-[2-trifluoromethyl-8-(2,4,6-trimethyl-phenyl)-5,6,7,8-tetrahydro-imidazo[1,2-a]pyrimidin-3-ylmethyl]-amine], the pKi was greater than 7.00.

As to `CCCN(Cc1c(C(F)(F)F)nc2n1CCCN2c1c(C)cc(C)cc1Cl)CC1CC1` [Example 96, [8-(2-Chloro-4,6-dimethyl-phenyl)-2-trifluoromethyl-5,6,7,8-tetrahydro-imidazo[1,2-a]pyrimidin-3-ylmethyl]-cyclopropylmethyl-propyl-amine], the pKi was greater than 7.00.

For the molecule `Cc1cc(C)c(N2CCCn3c2nc(C(F)(F)F)c3CN2CCOCC2)c(Cl)c1` [Example 97, 8-(2-Chloro-4,6-dimethyl-phenyl)-3-morpholin-4-ylmethyl-2-trifluoromethyl-5,6,7,8-tetrahydro-imidazo[1,2-a]pyrimidine], the pKi is greater than 6.00.

In the case of `Cc1cc(C)c(N2CCCn3c2nc(C(F)(F)F)c3CN2CCSCC2)c(Cl)c1` [Example 98, 8-(2-Chloro-4,6-dimethyl-phenyl)-3-thiomorpholin-4-ylmethyl-2-trifluoromethyl-5,6,7,8-tetrahydro-imidazo[1,2-a]pyrimidine], the pKi is greater than 6.00.

Regarding `Cc1cc(C)c(N2CCCn3c2nc(C(F)(F)F)c3CN2CCCCC2)c(Cl)c1` [Example 99, 8-(2-Chloro-4,6-dimethyl-phenyl)-3-piperidin-1-ylmethyl-2-trifluoromethyl-5,6,7,8-tetrahydro-imidazo[1,2-a]pyrimidine], the pKi was greater than 6.00.

As to `Cc1cc(C)c(N2CCCn3c2nc(C(F)(F)F)c3CN2CCCCC2C)c(Cl)c1` (stereo not drawn) [Example 100, 8-(2-Chloro-4,6-dimethyl-phenyl)-3-(2-methyl-piperidin-1-ylmethyl)-2-trifluoromethyl-5,6,7,8-tetrahydro-imidazo[1,2-a]pyrimidine], the negative-log Ki (pKi) was greater than 6.00.

Take `Cc1cc(C)c(N2CCCn3c2nc(C(F)(F)F)c3CN2CCCC(C)C2)c(Cl)c1` (stereo not drawn) [Example 101, 8-(2-Chloro-4,6-dimethyl-phenyl)-3-(3-methyl-piperidin-1-ylmethyl)-2-trifluoromethyl-5,6,7,8-tetrahydro-imidazo[1,2-a]pyrimidine]: the pKi is greater than 6.00.

Regarding `Cc1cc(C)c(N2CCCn3c2nc(C(F)(F)F)c3CN2CCC(C)CC2)c(Cl)c1` [Example 102, 8-(2-Chloro-4,6-dimethyl-phenyl)-3-(4-methyl-piperidin-1-ylmethyl)-2-trifluoromethyl-5,6,7,8-tetrahydro-imidazo[1,2-a]pyrimidine], the negative logarithm of the Ki (pKi) was greater than 6.00.

Regarding `C=CCN(CC=C)Cc1c(C(F)(F)F)nc2n1CCCN2c1c(C)cc(C)cc1Cl` [Example 103, Diallyl-[8-(2-chloro-4,6-dimethyl-phenyl)-2-trifluoromethyl-5,6,7,8-tetrahydro-imidazo[1,2-a]pyrimidin-3-ylmethyl]-amine], the pKi is greater than 7.00.

Regarding `CCCCN(C)Cc1c(C(F)(F)F)nc2n1CCCN2c1c(C)cc(C)cc1Cl` [Example 104, Butyl-[8-(2-chloro-4,6-dimethyl-phenyl)-2-trifluoromethyl-5,6,7,8-tetrahydro-imidazo[1,2-a]pyrimidin-3-ylmethyl]-methyl-amine], the pKi was greater than 6.00.
